The text below walks through data of US7901712B2, “Gliclazide nanosphere and manufacturing method therefor and application thereof” (Kaoshiung Medical University, priority 2006, dated 2011).

A short description of data set [1]: In vitro dissolution test, USP 24 paddle apparatus. Type of data set: physicochemical. To be noted: 37°C; for DP (dissolved percentage): deionized water. The protocol:
According to the USP 24 paddle apparatus, in vitro dissolution tests are performed with Hanson SR8 Plus (Chatsworth, USA). Three samples containing 80 mg of GL pure drug, GL solid complexes with an equivalent amount of GLs and GL nanospheres with an equivalent amount of GLs are poured separately into 900 ml deionized water at 37±0.5° C. with stirring rate at 100 rpm. Afterwards, 0.2 ml of each sample was withdrawn respectively at 1, 3, 5, 10, 15, 30, 60 and 120 min by the Waters transfer module (Milford, USA). Subsequently, the concentration of the samples was assayed using the HPLC method. The dissolution profiles are evaluated by the dissolution efficiency (DE) parameter (Khan, 1975) and the dissolved percentage (DP). The DE of GL pure drug, GL nanospheres and GL solid complex are calculated from the following equation (3).
wherein, y represents the percentage of dissolved product;
t1 and t2 represents the two different time points
y100 represents the maximum percentage of the dissolved sample

The nature of data set [2]: Particle size measurement by photon correlation spectroscopy. In kind it is physicochemical. To be noted: PCS, diluted in ethylene glycol, n = 3. As for the experimental part: The average particle size of GL nanoparticles, GL solid complexes, the β-CD and the gliclazide pure drug were measured by the method of photon correlation spectroscopy (PCS) using Malvern Zetasizer 3000HSA (Malvern Worcestershire, UK). Prior to measurements, about 50 mg of each sample were diluted with 100 ml of ethylene glycol. The sizes of the above-mentioned four particle distributions were estimated by setting the intensity of the scattered light at λ=750 nm and the scattering angle at θ=90°. The background medium, i.e. the ethylene glycol (η=16.1 mPa·s) with the refractive index thereof being 1.431.

The mark [3] stands for this setting: 5 min, 900 ml deionized water, 100 rpm, 80 mg GL equivalent, n = 6.
The mark [4] stands for this setting: 30 min, 900 ml deionized water, 100 rpm, n = 6.
Where [5] appears, read: 60 min, 900 ml deionized water, 100 rpm, n = 6.

With `Cc1ccc(S(=O)(=O)NC(=O)NN2CC3CCCC3C2)cc1` (stereo not shown) [GL], in data set [1] (setting [3]), the “DE5 (dissolution efficiency)” value was found to be 0.0129 and the “DP5 (dissolved percentage)” value turned out to be 1.44. In data set [1] (setting [4]), the “DE30 (dissolution efficiency)” value was 0.0229 and the “DP30 (dissolved percentage)” value turned out to be 3.84. Also, in data set [1] (setting [5]), the “DE60 (dissolution efficiency)” value worked out at 0.0416 and the “DP60 (dissolved percentage)” value was determined as 8.23. Further, the “DP (dissolved percentage)” value in data set [1] (after 60 minutes) amounted to 8.23%. Also, in data set [1] (after five minutes), the “DP (dissolved percentage)” value came out at 1.44%. The “Mean size ± S.D.” value in data set [2] is 47.56 ± 2.11 μm.
On to `OC[C@H]1O[C@@H]2O[C@H]3[C@H](O)[C@@H](O)[C@@H](O[C@H]4[C@H](O)[C@@H](O)[C@@H](O[C@H]5[C@H](O)[C@@H](O)[C@@H](O[C@H]6[C@H](O)[C@@H](O)[C@@H](O[C@H]7[C@H](O)[C@@H](O)[C@@H](O[C@H]8[C@H](O)[C@@H](O)[C@@H](O[C@H]1[C@H](O)[C@H]2O)O[C@@H]8CO)O[C@@H]7CO)O[C@@H]6CO)O[C@@H]5CO)O[C@@H]4CO)O[C@@H]3CO` [β-CD], for which the “Mean size ± S.D.” value in data set [2] was determined as 161.03±3.12 μm.
